Laboratory results taken from ChEMBL document CHEMBL5375953, “Discovery of Biaryl Amide Derivatives as Potent, Selective, and Orally Bioavailable RORγt Agonists for Cancer Immunotherapy” (J Med Chem, 2023).

Tests used:
[1] = Half life in dog at 2 mg/kg,po administration measured after 24 hrs by LC-MS/MS analysis; format: ADME, organism-based, Canis lupus familiaris; conditions: in vivo
[2] = Metabolic Stability in human liver microsome assessed as microsomal intrinsic clearance at […] measured upto 60 mins by HPLC-MS/MS analysis; format: ADME; conditions: liver microsomes, read-out: CLH
[3] = Metabolic Stability in cynomolgus monkey liver microsome assessed as microsomal intrinsic clearance at […] measured upto 60 mins by HPLC-MS/MS analysis; format: ADME, Macaca fascicularis; conditions: liver microsomes, read-out: CLH
[4] = Half life in rat at 1 mg/kg,iv administration measured after 24 hrs by LC-MS/MS analysis; format: ADME, organism-based; conditions: in vivo
[5] = Volume of distribution at steady state in rat at 1 mg/kg,iv administration measured after 24 hrs by LC-MS/MS analysis; format: ADME, organism-based; conditions: in vivo, read-out: Vdss
[6] = Metabolic Stability in cynomolgus monkey liver microsome assessed as intrinsic clearance at […] measured upto 60 mins by HPLC-MS/MS analysis; format: ADME, Macaca fascicularis; conditions: microsomes, 1 h
[7] = Toxicity against C57BL/6 mouse xenografted with mouse Lung adenocarcinoma cell line assessed as change in body weight at 25 mg/kg,ip administrated on day 7 for 12 days; format: organism-based; conditions: in vivo, 288 h, time 12 day
[8] = Volume of distribution at steady state in dog at 1 mg/kg,iv administration measured after 24 hrs by LC-MS/MS analysis; format: ADME, organism-based, Canis lupus familiaris; conditions: in vivo, read-out: Vdss
[9] = Half life in CD-1 mouse at 1 mg/kg,iv administration measured after 24 hrs by LC-MS/MS analysis; format: ADME, organism-based; conditions: in vivo
[10] = Genotoxicity in Salmonella typhimurium TA98 by mini-Ames mutagenicity test; format: toxicity; conditions: salmonella enterica subsp. enterica serovar typhimurium
[11] = Metabolic Stability in human liver microsome assessed as intrinsic clearance at […] measured upto 60 mins by HPLC-MS/MS analysis; format: ADME; conditions: microsomes, 1 h
[12] = AUC(infinity) in dog at 1 mg/kg,iv administration measured after 24 hrs by LC-MS/MS analysis; format: ADME, organism-based, Canis lupus familiaris; set-up: time 24 hrs, dose 1 mg/kg, route iv; conditions: in vivo
[13] = Toxicity against C57BL/6 mouse xenografted with mouse B16-F10 cells assessed as animal death at 25 to 100 mg/kg,ip administrated on day 7 for 8 days; format: organism-based; conditions: in vivo, 192 h, dose 25-100 mg/kg, time 8 day
[14] = molecular target: Voltage-gated inwardly rectifying potassium channel KCNH2 (Homo sapiens, UniProt Q12809); assay: Inhibition of hERG potassium channel by patch clamp assay; format: toxicity
[15] = Metabolic Stability in dog liver microsome assessed as intrinsic clearance at […] measured upto 60 mins by HPLC-MS/MS analysis; format: ADME, Canis lupus familiaris; conditions: microsomes, 1 h
[16] = Cmax in rat at 5 mg/kg,po administration measured after 24 hrs by LC-MS/MS analysis; format: ADME, organism-based; set-up: time 24 hrs, dose 5 mg/kg, route po; conditions: in vivo
[17] = Oral bioavailability in CD-1 mouse at 5 mg/kg administration measured after 24 hrs by LC-MS/MS analysis; format: ADME, organism-based; conditions: in vivo
[18] = Metabolic Stability in dog liver microsome assessed as microsomal intrinsic clearance at […] measured upto 60 mins by HPLC-MS/MS analysis; format: ADME, Canis lupus familiaris; conditions: liver microsomes, read-out: CLH
[19] = Metabolic Stability in mouse liver microsome assessed as microsomal intrinsic clearance at […] measured upto 60 mins by HPLC-MS/MS analysis; format: ADME; conditions: liver microsomes, read-out: CLH
[20] = Metabolic Stability in cynomolgus monkey liver microsome assessed as half life at […] measured upto 60 mins by HPLC-MS/MS analysis; format: ADME, Macaca fascicularis; conditions: liver microsomes
[21] = Oral bioavailability in rat at 5 mg/kg administration measured after 24 hrs by LC-MS/MS analysis; format: ADME, organism-based; conditions: in vivo
[22] = Half life in dog at 1 mg/kg,iv administration measured after 24 hrs by LC-MS/MS analysis; format: ADME, organism-based, Canis lupus familiaris; conditions: in vivo
[23] = Toxicity against C57BL/6 mouse xenografted with mouse Lung adenocarcinoma cell line assessed as change in body weight at 100 mg/kg,po administrated on day 7 for 12 days; format: organism-based; conditions: in vivo, 288 h, time 12 day
[24] = Clearance in dog at 1 mg/kg,iv administration measured after 24 hrs by LC-MS/MS analysis; format: ADME, organism-based, Canis lupus familiaris; conditions: in vivo
[25] = AUC(infinity) in dog at 2 mg/kg,po administration measured after 24 hrs by LC-MS/MS analysis; format: ADME, organism-based, Canis lupus familiaris; set-up: dose 2 mg/kg, time 24 hrs, route po; conditions: in vivo
[26] = Cmax in CD-1 mouse at 5 mg/kg,po administration measured after 24 hrs by LC-MS/MS analysis; format: ADME, organism-based; set-up: dose 5 mg/kg, time 24 hrs, route po; conditions: in vivo
[27] = Metabolic Stability in rat liver microsome assessed as half life at […] measured upto 60 mins by HPLC-MS/MS analysis; format: ADME; conditions: liver microsomes
[28] = Metabolic Stability in mouse liver microsome assessed as half life at […] measured upto 60 mins by HPLC-MS/MS analysis; format: ADME; conditions: liver microsomes
[29] = Half life in CD-1 mouse at 5 mg/kg,po administration measured after 24 hrs by LC-MS/MS analysis; format: ADME, organism-based; conditions: in vivo
[30] = test system: B16-F10; assay: Antitumor activity against mouse B16-F10 cells xenografted in C57BL/6 mouse assessed as tumor growth inhibition at 100 mg/kg,ip administrated on day 7 for 8 days relative to control; format: functional; conditions: B16-F10, 192 h, time 8 day, read-out: TGI
[31] = test system: B16-F10; assay: Antitumor activity against mouse B16-F10 cells xenografted in C57BL/6 mouse assessed as tumor growth inhibition at 25 mg/kg,ip administrated on day 7 for 8 days relative to control; format: functional; conditions: B16-F10, 192 h, time 8 day, read-out: TGI
[32] = Metabolic Stability in rat liver microsome assessed as intrinsic clearance at […] measured upto 60 mins by HPLC-MS/MS analysis; format: ADME; conditions: microsomes, 1 h
[33] = molecular target: T1, Nuclear receptor ROR-beta (Homo sapiens, UniProt Q92753); assay: Agonist activity at human Gal4-fused RORbeta expressed in HEK293T cells assessed as luciferase activity incubated for 16 to 20 hrs by Luciferase reporter gene assay; format: cell-based
T1 sequence (Q92753 whole entry): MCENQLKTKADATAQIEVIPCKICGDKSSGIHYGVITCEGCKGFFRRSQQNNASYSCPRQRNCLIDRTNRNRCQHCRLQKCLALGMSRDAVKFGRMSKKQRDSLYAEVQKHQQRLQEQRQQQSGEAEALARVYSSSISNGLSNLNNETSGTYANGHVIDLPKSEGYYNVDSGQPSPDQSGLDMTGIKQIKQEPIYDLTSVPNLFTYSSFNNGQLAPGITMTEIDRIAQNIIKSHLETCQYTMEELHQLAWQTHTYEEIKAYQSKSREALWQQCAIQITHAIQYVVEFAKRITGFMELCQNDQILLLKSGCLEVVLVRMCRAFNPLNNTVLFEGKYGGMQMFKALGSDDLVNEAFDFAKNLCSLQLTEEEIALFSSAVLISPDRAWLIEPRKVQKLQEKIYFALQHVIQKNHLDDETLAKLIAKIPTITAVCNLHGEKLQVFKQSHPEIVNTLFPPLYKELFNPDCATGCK

[34] = Metabolic Stability in human liver microsome assessed as half life at […] measured upto 60 mins by HPLC-MS/MS analysis; format: ADME; conditions: liver microsomes
[35] = Toxicity against C57BL/6 mouse xenografted with mouse B16-F10 cells assessed as body weight loss at 25 to 100 mg/kg,ip administrated on day 7 for 8 days; format: organism-based; conditions: in vivo, 192 h, dose 25-100 mg/kg, time 8 day

Chain of Voltage-gated inwardly rectifying potassium channel KCNH2 (Q12809 whole entry): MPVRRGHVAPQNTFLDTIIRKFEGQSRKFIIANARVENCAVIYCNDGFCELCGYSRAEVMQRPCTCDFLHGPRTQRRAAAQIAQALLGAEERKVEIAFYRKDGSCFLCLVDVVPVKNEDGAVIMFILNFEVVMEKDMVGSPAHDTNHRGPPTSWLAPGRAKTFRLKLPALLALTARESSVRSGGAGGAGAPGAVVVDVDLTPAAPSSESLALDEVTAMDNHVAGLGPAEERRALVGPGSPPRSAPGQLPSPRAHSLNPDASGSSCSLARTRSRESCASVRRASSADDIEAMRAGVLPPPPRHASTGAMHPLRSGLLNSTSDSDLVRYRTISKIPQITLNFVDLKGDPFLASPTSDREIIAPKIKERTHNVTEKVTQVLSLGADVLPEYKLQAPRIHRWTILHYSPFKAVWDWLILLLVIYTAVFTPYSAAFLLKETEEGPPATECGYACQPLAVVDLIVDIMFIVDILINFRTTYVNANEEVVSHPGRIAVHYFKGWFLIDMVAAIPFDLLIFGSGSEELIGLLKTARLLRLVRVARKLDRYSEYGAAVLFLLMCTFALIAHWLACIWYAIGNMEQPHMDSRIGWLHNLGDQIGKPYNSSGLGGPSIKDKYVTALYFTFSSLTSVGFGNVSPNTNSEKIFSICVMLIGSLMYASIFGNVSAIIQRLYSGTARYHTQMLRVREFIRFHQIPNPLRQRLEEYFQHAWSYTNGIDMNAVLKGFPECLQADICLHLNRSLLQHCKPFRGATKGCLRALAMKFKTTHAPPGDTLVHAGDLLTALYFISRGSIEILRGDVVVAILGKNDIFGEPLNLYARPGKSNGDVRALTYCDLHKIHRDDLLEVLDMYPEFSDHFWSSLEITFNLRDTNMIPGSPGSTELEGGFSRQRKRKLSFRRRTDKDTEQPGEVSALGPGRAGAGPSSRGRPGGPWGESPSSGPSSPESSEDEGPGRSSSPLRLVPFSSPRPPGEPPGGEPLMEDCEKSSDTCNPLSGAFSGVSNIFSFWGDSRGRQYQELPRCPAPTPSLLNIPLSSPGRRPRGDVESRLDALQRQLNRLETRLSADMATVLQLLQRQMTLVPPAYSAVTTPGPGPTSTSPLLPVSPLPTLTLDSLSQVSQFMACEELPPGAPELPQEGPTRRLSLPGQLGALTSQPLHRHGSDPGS

Structure (SMILES): CCS(=O)(=O)c1ccc(CC(=O)Nc2cc(Cl)c(-c3ccc(OC(C)C)c(C#N)c3)c(Cl)c2)cc1
- half-life [1]: 59.1 h
- microsomal CLint [2]: < 9.6 µL/min/mg
- microsomal CLint [3]: 44.6 µL/min/mg
- half-life [4]: 11.2 h
- Vd [5]: 2.8 L/kg
- CLH [6]: 60.2 µL/min/mg
- Activity [7]: Non-Toxic
- Vd [8]: 2.5 L/kg
- t1/2 [9]: 6.3 h
- Activity [10]: Non-Toxic
- CLH [11]: < 8.6 µL/min/mg
- AUC(0-inf) [12]: 27000 ng·h/mL
- Activity [13]: Non-Toxic
- IC50 [14]: > 10 µM
- CLH [15]: < 13.8 µL/min/mg
- Cmax [16]: 503 ng/mL
- bioavailability [17]: 90.3%
- microsomal CLint [18]: < 9.6 µL/min/mg
- microsomal CLint [19]: < 9.6 µL/min/mg
- half-life [20]: 0.518 h
- bioavailability [21]: 39.4%
- half-life [22]: 46.5 h
- Activity [23]: Non-Toxic
- clearance [24]: 0.64 mL/min/kg
- AUC(0-inf) [25]: 33000 ng·h/mL
- Cmax [26]: 1810 ng/mL
- half-life [27]: > 2.42 h
- half-life [28]: > 2.42 h
- half-life [29]: 6 h
- inhibition in vivo at 100 mg/kg [30]: 77.9%
- inhibition in vivo at 25 mg/kg [31]: 51.6%
- CLH [32]: < 17.3 µL/min/mg
- EC50 [33]: > 10 µM
- half-life [34]: > 2.42 h
- Activity [35]: Non-Toxic
